Reference: publication PMC6264777, “New Catechol Derivatives of Safrole and Their Antiproliferative Activity towards Breast Cancer Cells” (Molecules, 2011)
Where two headings read alike, the source gives them in different places.

Experiments:
[1] = tested on: dermal human fibroblast cells (DHF); assay: cells; format: cell-based; conditions: for IC50: read-out: IC50 DHF
MCF-7 cells = assay: Sulforhodamine B in vitro growth inhibition assay, MCF-7; format: cell-based, human; conditions: read-out: IC50 (μM) MCF-7
Procedure: (§1) IC50 values of compounds 3-11, safrole, catechol 2 and the reference compound daunorubicin are summarized in Table 1 as the micromolar concentration that produces 50% cell growth inhibition after 72 hours of drug exposure.
(§2) The experimental cell cultures were obtained from American Type Culture Collection (Rockville, MD, USA). MCF-7, MDA-MB-231 cells were grown in DMEM-F12 medium containing 10% FCS, 100 U/mL penicillin, 100 µg/mL streptomycin and 1 mM glutamine. Cells are seeded into 96 well microtiter plates in 100 µL at plating density of 3 × 10^3 cells/well. After 24 h incubation at 37 °C (under a humidified 5% carbon dioxide to allow cell attachment) the cells were treated with different concentrations of drugs (safrole and derivatives) and incubated for 72 h under the same conditions. Stock solution of compounds was prepared in ethanol and the final concentration of this solvent was kept constant at 0.1%. Control cultures received 0.1% ethanol alone.
(§3) The sulforhodamine B assay according to the method of Skehan et al. was used with some modifications. Briefly, the cells were set up 3 × 10^3 cells per well of a 96-well, flat-bottomed 200 μL microplate. Cells were incubated at 37 °C in a humidified 5% CO2/95% air mixture and treated with the compounds at different concentrations for 72 hours. At the end of drug exposure, cells were fixed with 50% trichloroacetic acid at 4 °C (TCA final concentration 10%). After washing with destilled water, cells were stained with 0.1% sulforhodamine B (Sigma-Aldrich, St. Louis, MO, USA), dissolved in 1% acetic acid (50 µL/well) for 30 min, and subsequently washed with 1% acetic acid to remove unbound stain. Protein-bound stain was solubilized with 100 µL of 10 mM unbuffered Tris base. The cell density was determined using a […] plate reader (wavelength 540 nm). Values shown are the mean + SD three independent experiments in triplicate.

MDA-MB-231 cells = assay: Sulforhodamine B in vitro growth inhibition assay, MDA-MB-231; format: cell-based, human; conditions: read-out: IC50 (μM) MDA-MB-231
Procedure: as §1, §2, §3

various human cell types = conditions: cited from earlier work
[2] = Homo sapiens, Fibroblast, 50% cell growth inhibition after 72 hours of drug exposure, SRB, non-tumoral cells
[3] = Homo sapiens, MCF7, 50% cell growth inhibition after 72 hours of drug exposure, SRB, mean ± SD, three independent experiments in triplicate
[4] = Homo sapiens, MDA-MB-231, 50% cell growth inhibition after 72 hours of drug exposure, SRB, mean ± SD, three independent experiments in triplicate
[5] = 50% cell growth inhibition after 72 hours of drug exposure, SRB, mean ± SD, three independent experiments in triplicate

Row | Compound | IC50 [1, 2] [µM] | IC50 (MCF-7 cells; [3]) [µM] | IC50 (MDA-MB-231 cells; [4]) [µM] | further results
1 | CC(=O)OCCCc1ccc(OC(C)=O)c(OC(C)=O)c1 [Compound 6, 4-[3-(acetyloxy)propyl]-1,2-phenylene diacetate] | > 100 | 97.8 ± 12.4 | 5.9 ± 0.8 | –
2 | CC(=O)OCCCc1cc(OC(C)=O)c(OC(C)=O)cc1[N+](=O)[O-] [Compound 10, 4-[3-(acetyloxy)propyl]-5-nitro-1,2-phenylene diacetate] | > 100 | 51.3 ± 2.1 | 33.8 ± 4.9 | –
3 | C=CCc1ccc2c(c1)OCO2 [safrole, Safrole] | – | – | – | concentrations at which safrole becomes cytotoxic (various human cell types): 5000 to 10000 µM; IC50 ([1]; Homo sapiens, Fibroblast, 72 h): > 100 µM; IC50 (MCF-7 cells; Homo sapiens, MCF7, 72 h): > 100 µM; IC50 (MDA-MB-231 cells; Homo sapiens, MDA-MB-231, 72 h): > 100 µM
4 | CC(O)Cc1cc(O)c(O)cc1[N+](=O)[O-] (centres unmarked) [Compound 9, 4-(2-hydroxypropyl)-5-nitrobenzene-1,2-diol] | > 100 | > 100 | > 100 | –
5 | CC(=O)OCCCc1cc(O)c(O)cc1[N+](=O)[O-] [Compound 11, 3-(4,5-dihydroxy-2-nitrophenyl)propyl acetate] | > 100 | 63.8 ± 5.5 | 27.1 ± 4.4 | –
6 | C=CCc1ccc(O)c(O)c1 [Compound 3, 4-allylbenzene-1,2-diol] | > 100 | 98.4 ± 11.6 | 40.2 ± 6.9 | toxicity towards dermal human fibroblast (DHF cells) [1]: without toxicity
7 | C=CCc1ccc(OC(C)=O)c(OC(C)=O)c1 [Compound 4, 4-allyl-1,2-phenylene diacetate] | > 100 | > 100 | 54.7 ± 6.6 | –
8 | 4-allyl-1,2-phenylene diacetate [Compound 7] | – | – | – | IC50 ([1]; 50% cell growth inhibition after 72 hours of drug exposure, SRB, non-tumoral cells): > 100 µM; IC50 (MCF-7 cells; [5]): > 100 µM; IC50 (MDA-MB-231 cells; [5]): 41.7 ± 7.4 µM
9 | C=CCc1cc(O)c(O)cc1[N+](=O)[O-] [Compound 2, 4-allyl-5-nitrobenzene-1,2-diol] | > 100 | 55 ± 7.11 | 37.5 ± 2.65 | –
10 | O=[N+]([O-])c1cc(O)c(O)cc1CCCO [Compound 8, 4-(3-hydroxypropyl)-5-nitrobenzene-1,2-diol] | > 100 | 78.2 ± 8.9 | 57.3 ± 4.1 | –
11 | COc1cccc2c1C(=O)c1c(O)c3c(c(O)c1C2=O)C[C@@](O)(C(C)=O)C[C@@H]3O[C@H]1C[C@H](N)[C@H](O)[C@H](C)O1 [Daunorubicin, reference compound] | 14.3 ± 1.85 | 0.19 ± 0.01 | 0.38 ± 0.06 | –
12 | OCCCc1ccc(O)c(O)c1 [Compound 5, 4-(3-hydroxypropyl)benzene-1,2-diol] | > 100 | > 100 | 54.3 ± 4.1 | –
